Legend:
[1] = tested on: type IV pili (T4P) twitching motility; test: twitching assay (spread under agar, crystal violet staining); assay type: cell-based, P. aeruginosa
Text: Since T4P is required for twitching motility, the dispersing compound's effect on a pathogen can be seen in a twitching assay. In this assay, cells are placed underneath agar and allowed to spread from their starting spot along the bottom surface of a Petri dish. The extent of this spread is visualized with crystal violet staining and quantified. In the presence of agar made with LB, WT cells traveled 11±0.7 mm (mean±SD) from the starting spot. […] The effect of MHQ on twitching depended on T4P, as ΔpilA cells that lack T4P traveled similar distances away from the starting spot in the absence of MHQ (1.9±0.1 mm) or in the presence of MHQ (2.3±0.3 mm).

[2] = tested on: T4P activity; test: T4P dynamics imaging by cysteine-labeling of PilA; assay type: cell-based, P. aeruginosa; conditions: 2 mM MHQ for 5 min; n=493; PBS control 77%
Experimental: To directly assay the effect of a dispersing compound on T4P activity, the recently developed cysteine-labeling approach can be used to fluorescently label T4P and image their dynamics. This approach uses a cysteine point mutation in an unstructured loop of the PilA pilin subunit to label the pili through maleimide-based click chemistry. In one experiment, the pili of untreated cells were labeled and then imaged T4P dynamics after a brief (5 min) exposure to MHQ or PBS control. Following a 5 min mock treatment with PBS, T4P were seen extending and retracting from 77% of the cells (n=473). […] Since the T4P was labeled before MHQ treatment and the treatment was brief, this effect cannot be attributed to effects of MHQ on TFP expression or labeling. Similar results can be seen with other disclosed dispersing compounds.

[3] = tested on: P. aeruginosa; test: orientation of surface attachment (vertical vs horizontal) of cells; assay type: cell-based; conditions: 10 mM MHQ; ntotal=1331; PBS control 76%
Experimental: Upon treatment with phosphate buffered saline (PBS), 76% (ntotal=1347) of the cells attached to the surface vertically. In contrast, upon treatment with, e.g., 10 mM MHQ, only 5% (ntotal=1331) of the cells attached to the surface vertically. A similar behavior is found between MHQ-treated WT cells and mutants lacking Type IV pilin subunits (PilA), as only 7% (ntotal=1995) of ΔpilA cells were attached vertically even in PBS treatment.

Cc1cc(O)c2ccccc2n1 [MHQ, 2-methyl-4-hydroxyquinoline]
distance traveled from the starting spot ([1]; WT cells, agar made with LB and 2 mM MHQ, mean±SD, LB alone 11±0.7 mm): 7±0.5 mm | distance traveled from the starting spot ([1]; ΔpilA cells that lack T4P, in the presence of MHQ, without MHQ 1.9±0.1 mm): 2.3±0.3 mm | cells exhibiting any T4P extension or retraction events [2]: 4% | cells attached to the surface vertically [3]: 5%

Source: patent US20220015363A1, “SMALL MOLECULE PATHOGEN DISPERSAL AGENT” (The Trustees of Princeton University, priority 2020, published 2022)
